Assay results from ChEMBL document CHEMBL3885861, “Open TG-GATES”.

Species on record: Rattus norvegicus
Assay: Open TG-GATES - Regimen: Daily Repeat
Type: toxicity, organism-based, Sprague-Dawley
Design: regimen Daily Repeat, gender Male, age 6 weeks
Conditions: in vivo, po, 200 mg/kg, route gavage, dose level High; for APTT / Bas / Eos / Fbg / Hb / Ht / Lym / MCH / MCHC / MCV / Mono / Neu / PT / Plat / RBC / Ret / WBC: tissue Blood; for KIDNEY_L / KIDNEY_R / KIDNEY_TOTAL: tissue Kidney; for LIVER: tissue Liver; for A/G / ALP / ALT / AST / BUN / CRE / Ca / Cl / DBIL / GLC / IP / K / LDH / Na / PL / RALB / TBIL / TC / TG / TP / gamma-GTP: tissue Plasma

## NNC(=O)c1ccncc1 [ISONIAZID]
72 h, time 3 day
  TERMINAL_BW: 211.3 g
  APTT: 15.3 s
  Bas: 0%
  Eos: 0.8%
  Fbg: 228.6 mg/dL
  Hb: 13.5 g/dL
  Ht: 40.4%
  Lym: 78.4%
  MCH: 21.5 pg
  MCHC: 33.5%
  MCV: 64.1 fL
  Mono: 4.6%
  Neu: 16%
  PT: 12 s
  Plat: 140.8 x10_4/uL
  RBC: 629.8 x10_4/ul
  Ret: 6.5%
  WBC: 96.9 x10_2/uL
  KIDNEY_L: 1 g
  KIDNEY_R: 1.1 g
  KIDNEY_TOTAL: 2.1 g
  LIVER: 10.5 g
  A/G: 1.9
  ALP: 722.8 IU/L
  ALT: 10.6 IU/L
  AST: 44.4 IU/L
  BUN: 19 mg/dL
  CRE: 0.5 mg/dL
  Ca: 10.6 mg/dL
  Cl: 104.8 meq/L
  DBIL: 0.006 mg/dL
  GLC: 209.6 mg/dL
  IP: 7.6 mg/dL
  K: 5.1 meq/L
  LDH: 95.8 IU/L
  Na: 140.2 meq/L
  PL: 140.6 mg/dL
  RALB: 3.8 g/dL
  TBIL: 0.3 mg/dL
  TC: 78.6 mg/dL
  TG: 63 mg/dL
  TP: 5.8 g/dL
  gamma-GTP: 1.4 IU/L
[…], time 7 day
  TERMINAL_BW: 228.8 g
  APTT: 16.3 s
  Bas: 0%
  Eos: 0.6%
  Fbg: 236.4 mg/dL
  Hb: 13.6 g/dL
  Ht: 40.5%
  Lym: 81.4%
  MCH: 20 pg
  MCHC: 33.5%
  MCV: 59.7 fL
  Mono: 4.6%
  Neu: 13.2%
  PT: 12.1 s
  Plat: 138 x10_4/uL
  RBC: 678.2 x10_4/ul
  Ret: 4.7%
  WBC: 126.4 x10_2/uL
  KIDNEY_L: 1.2 g
  KIDNEY_R: 1.2 g
  KIDNEY_TOTAL: 2.3 g
  LIVER: 11.1 g
  A/G: 1.6
  ALP: 757.4 IU/L
  ALT: 8.6 IU/L
  AST: 46.8 IU/L
  BUN: 16.2 mg/dL
  CRE: 0.5 mg/dL
  Ca: 10.4 mg/dL
  Cl: 105 meq/L
  DBIL: 0.028 mg/dL
  GLC: 212.2 mg/dL
  IP: 8 mg/dL
  K: 5.1 meq/L
  LDH: 77.6 IU/L
  Na: 140.6 meq/L
  PL: 127.8 mg/dL
  RALB: 3.8 g/dL
  TBIL: 0.3 mg/dL
  TC: 64.4 mg/dL
  TG: 62.2 mg/dL
  TP: 6.1 g/dL
  gamma-GTP: 1.2 IU/L
[…], time 14 day
  TERMINAL_BW: 255.7 g
  APTT: 16.2 s
  Bas: 0%
  Eos: 1.2%
  Fbg: 212.8 mg/dL
  Hb: 13.3 g/dL
  Ht: 39.7%
  Lym: 73.4%
  MCH: 18.9 pg
  MCHC: 33.6%
  MCV: 56.2 fL
  Mono: 5.8%
  Neu: 19.8%
  PT: 12.3 s
  Plat: 134 x10_4/uL
  RBC: 707.4 x10_4/ul
  Ret: 5.4%
  WBC: 130.8 x10_2/uL
  KIDNEY_L: 1.2 g
  KIDNEY_R: 1.2 g
  KIDNEY_TOTAL: 2.3 g
  LIVER: 12.1 g
  A/G: 1.7
  ALP: 587.6 IU/L
  ALT: 8.8 IU/L
  AST: 48.4 IU/L
  BUN: 20.4 mg/dL
  CRE: 0.6 mg/dL
  Ca: 10.3 mg/dL
  Cl: 106.8 meq/L
  DBIL: 0.004 mg/dL
  GLC: 210.8 mg/dL
  IP: 7.8 mg/dL
  K: 5.1 meq/L
  LDH: 123.4 IU/L
  Na: 139.8 meq/L
  PL: 123.2 mg/dL
  RALB: 3.7 g/dL
  TBIL: 0.3 mg/dL
  TC: 60.2 mg/dL
  TG: 61.8 mg/dL
  TP: 5.9 g/dL
  gamma-GTP: 0.2 IU/L
[…], time 28 day
  TERMINAL_BW: 314.6 g
  APTT: 15.9 s
  Bas: 0%
  Eos: 0.8%
  Fbg: 226.2 mg/dL
  Hb: 13 g/dL
  Ht: 39%
  Lym: 84.2%
  MCH: 16.6 pg
  MCHC: 33.2%
  MCV: 50 fL
  Mono: 5.5%
  Neu: 9.2%
  PT: 12.2 s
  Plat: 130.1 x10_4/uL
  RBC: 781.8 x10_4/ul
  Ret: 3.8%
  WBC: 181.2 x10_2/uL
  KIDNEY_L: 1.4 g
  KIDNEY_R: 1.4 g
  KIDNEY_TOTAL: 2.8 g
  LIVER: 12.6 g
  A/G: 1.6
  ALP: 533 IU/L
  ALT: 6.8 IU/L
  AST: 49.8 IU/L
  BUN: 19.5 mg/dL
  CRE: 0.6 mg/dL
  Ca: 9.9 mg/dL
  Cl: 106 meq/L
  DBIL: 0.0525 mg/dL
  GLC: 212.5 mg/dL
  IP: 6.7 mg/dL
  K: 4.9 meq/L
  LDH: 81.2 IU/L
  Na: 140.8 meq/L
  PL: 108.2 mg/dL
  RALB: 3.6 g/dL
  TBIL: 0.2 mg/dL
  TC: 53.8 mg/dL
  TG: 41.8 mg/dL
  TP: 5.8 g/dL
  gamma-GTP: 1.5 IU/L
